Assay results: US20260199323A1, “LIGAND COMPOUNDS FOR E3 UBIQUITIN LIGASE, PROTEIN DEGRADERS DEVELOPED ON BASIS OF LIGAND COMPOUNDS, AND USES THEREOF” (GLUETACS THERAPEUTICS (SHANGHAI) CO., LTD., priority 2021, published 2026)
Read-outs that look alike come from different tables or passages of the source.

What was measured:
Format in all cases: cell-based, Human
[1] = system: SR; assay: CCK-8 tumor cell proliferation, SR; settings: Homo sapiens; Table 15, ALK inhibitor based; SR; read-out: IC50 inhibiting proliferation of tumor cells, SR
How it was run: (§1)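 Ten-point titrations (10 μM highest, 5-fold steps) were applied to cells 24 h after seeding. After treatment at 37 °C, 5% CO2, cell viability was read with CCK-8 and IC50 values were computed from the resulting inhibition curves.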

[2] = system: PC-9; assay: CCK-8 tumor cell proliferation, PC-9; settings: Homo sapiens; Table 15, ALK inhibitor based; PC-9; read-out: IC50 inhibiting proliferation of tumor cells, PC-9
Protocol: The tumor cells used herein were cultured in a cell culture medium listed in table 4 at 37° C. in an incubator with 5% CO2.
(§2) After 24 h, 100 μL of the inoculated cells were treated with 0.5 μL of the compounds of the present disclosure (including the compounds in Tables 1 and 3, and compounds of examples) at 10 different successively decreasing concentrations (starting at the highest concentration of 10 μM; 5-fold serial dilutions). After the cells were treated with the compounds of the present disclosure for a period of time, the cell viability detection reagent was added to the culture medium for cell viability assessment according to the instructions provided with the CCK-8 kit. […] The growth inhibition of the compounds of the present disclosure on cells was plotted by Prism Graphpad software, and the IC50 values of the compounds of the present disclosure were calculated therefrom.

[3] = system: MV-4-11; assay: CCK-8 tumor cell proliferation, MV-4-11; settings: Homo sapiens, MV4-11; Table 15, ALK inhibitor based; MV-4-11; read-out: IC50 inhibiting proliferation of tumor cells, MV-4-11
Protocol: (§3) The tumor cells used herein were cultured in a cell culture medium listed in table 4 at 37° C. in an incubator with 5% CO2. Prior to experimentation, all cells used were correctly identified by STR profiling, and tested negative for mycoplasma through routine screenings.
as §2, with “IC50 values of the compounds of the present disclosure (including the compounds in Tables 1 and 3, and compounds of examples) were measured using the Meilun Cell Counting Kit-8 kit from Dalian Meilun Biotech Co., Ltd. Assay details are as follows: tumor cells were seeded in a 96-well plate at a density listed in Table 5. After 24” for “After 24”

[4] = system: Mino; assay: CCK-8 tumor cell proliferation, Mino; settings: Homo sapiens; Table 15, ALK inhibitor based; Mino; read-out: IC50 inhibiting proliferation of tumor cells, Mino
Protocol: as §3
as §2, with “IC50 values of the compounds of the present disclosure (including the compounds in Tables 1 and 3, and compounds of examples) were measured using the Meilun Cell Counting Kit-8 kit from Dalian Meilun Biotech Co., Ltd. Assay details are as follows: tumor cells were seeded in a 96-well plate at a density listed in Table 5. After 24” for “After 24”

[5] = system: MDA-MB-231; assay: CCK-8 tumor cell proliferation, MDA-MB-231; settings: Homo sapiens; Table 15, ALK inhibitor based; MDA-MB-231; read-out: IC50 inhibiting proliferation of tumor cells, MDA-MB-231
How it was run: as §1

[6] = system: CAL-62; assay: CCK-8 tumor cell proliferation, CAL-62; set-up: IC50 for inhibiting the proliferation of tumor cells, CAL-62: scale not given here; settings: for IC50 for inhibiting the proliferation of tumor cells, CAL-62: Table 8, designed based on ER inhibitors, 72 h; for IC50: Homo sapiens, Table 18, FAK inhibitor based, CAL-62, read-out: IC50 inhibiting proliferation of tumor cells, CAL-62
How it was run: as §1

[7] = system: CCRF-CEM; assay: CCK-8 tumor cell proliferation, CCRF-CEM; set-up: IC50 for inhibiting the proliferation of tumor cells, CCRF-CEM: scale not given here; settings: for IC50 for inhibiting the proliferation of tumor cells, CCRF-CEM: Table 8, designed based on ER inhibitors, 96 h
How it was run: as §1

[8] = system: Vcap; assay: CCK-8 tumor cell proliferation, Vcap; settings: for IC50 for inhibiting the proliferation of tumor cells, Vcap: Table 8, designed based on ER inhibitors, 96 h; for IC50: Homo sapiens, VCaP, Vcap, read-out: IC50 inhibiting proliferation of tumor cells, Vcap
Protocol: as §3
as §2, with “IC50 values of the compounds of the present disclosure (including the compounds in Tables 1 and 3, and compounds of examples) were measured using the Meilun Cell Counting Kit-8 kit from Dalian Meilun Biotech Co., Ltd. Assay details are as follows: tumor cells were seeded in a 96-well plate at a density listed in Table 5. After 24” for “After 24”

[9] = system: Jurkat; assay: CCK-8 tumor cell proliferation, Jurkat; settings: Homo sapiens, Table 22, NTRK inhibitor based, read-out: IC50 inhibiting proliferation of tumor cells, Jurkat
Protocol: as §3
as §2, with “IC50 values of the compounds of the present disclosure (including the compounds in Tables 1 and 3, and compounds of examples) were measured using the Meilun Cell Counting Kit-8 kit from Dalian Meilun Biotech Co., Ltd. Assay details are as follows: tumor cells were seeded in a 96-well plate at a density listed in Table 5. After 24” for “After 24”

[10] = system: SW620; assay: CCK-8 tumor cell proliferation, SW620; settings: for IC50: Homo sapiens, SW-620, Table 18, FAK inhibitor based, SW620, read-out: IC50 inhibiting proliferation of tumor cells, SW620; for IC50 for inhibiting the proliferation of tumor cells, SW620: Table 8, designed based on ER inhibitors, 96 h
Protocol: as §3
as §2, with “IC50 values of the compounds of the present disclosure (including the compounds in Tables 1 and 3, and compounds of examples) were measured using the Meilun Cell Counting Kit-8 kit from Dalian Meilun Biotech Co., Ltd. Assay details are as follows: tumor cells were seeded in a 96-well plate at a density listed in Table 5. After 24” for “After 24”

| IC50 [1] [nM] | IC50 [3] [nM] | IC50 for inhibiting the proliferation of tumor cells, CAL-62 [6] | IC50 for inhibiting the proliferation of tumor cells, CCRF-CEM [7] | IC50 for inhibiting the proliferation of tumor cells, Vcap [8] | Structure (SMILES) | other results |
| --- | --- | --- | --- | --- | --- | --- |
| < 50 | 100 to 500 | – | – | – | CCc1cc2c(cc1N1CCC(N3CCN(Cc4cc5c(cc4F)C(=O)N(C4CCC(=O)NC4=O)C5)CC3)CC1)C(C)(C)c1[nH]c3cc(C#N)ccc3c1C2=O (stereo not shown) [GT-03759, 8-(4-(4-((2-(2,6-dioxopiperidin-3-yl)-6-fluoro-1-oxoisoindolin-5-yl)methyl)piperazin-1-yl)piperidin-1-yl)-9-ethyl-6,6-dimethyl-11-oxo-6,11-dihydro-5H-benzo[b]carbazole-3-carbonitrile] | IC50 [2]: 100 to 500 nM; IC50 [4]: 500 to 1000 nM |
| < 50 | 50 to 100 | – | – | – | CCc1cc2c(cc1N1CCC(N3CCN(Cc4cccc5c4CN(C4CCC(=O)NC4=O)C5=O)CC3)CC1)C(C)(C)c1[nH]c3cc(C#N)ccc3c1C2=O (stereo not shown) [GT-03764, 8-(4-(4-((2-(2,6-dioxopiperidin-3-yl)-1-oxoisoindolin-4-yl)methyl)piperazin-1-yl)piperidin-1-yl)-9-ethyl-6,6-dimethyl-11-oxo-6,11-dihydro-5H-benzo[b]carbazole-3-carbonitrile] | IC50 [5]: 50 to 100 nM; IC50 [2]: 100 to 500 nM; IC50 [4]: 50 to 100 nM |
| < 50 | 100 to 500 | – | – | – | COc1cc(N2CCN(Cc3cccc4c3CN(C3CCC(=O)NC3=O)C4=O)CC2)ccc1Nc1ncc(Cl)c(Nc2ccccc2P(C)(C)=O)n1 (stereo not shown) [GT-03779, 3-(4-((4-(4-((5-chloro-4-((2-(dimethylphosphoryl)phenyl)amino)pyrimidin-2-yl)amino)-3-methoxyphenyl)piperazin-1-yl)methyl)-1-oxoisoindolin-2-yl)piperidine-2,6-dione] | – |
| 100 to 500 | 1000 to 5000 | – | – | – | COc1cc(N2CCN(Cc3ccc4c(c3)C(=O)N(C3CCC(=O)NC3=O)C4=O)CC2)ccc1Nc1ncc(Cl)c(Nc2ccccc2P(C)(C)=O)n1 (stereo not shown) [GT-03780, 5-((4-(4-((5-chloro-4-((2-(dimethylphosphoryl)phenyl)amino)pyrimidin-2-yl)amino)-3-methoxyphenyl)piperazin-1-yl)methyl)-2-(2,6-dioxopiperidin-3-yl)isoindoline-1,3-dione] | – |
| – | – | A+ | A+ | A+ | O=C1CCC(N2C(=O)c3ccc(CBr)cc3C2=O)C(=O)N1 (stereo not shown) [GT-03855] | – |
| – | – | – | – | – | O=C1CCC(N2Cc3cc(CN4CCN(c5cccc(-c6cnc7ccc(N8CCC[C@@H]8c8cccc(F)c8)nn67)n5)CC4)c(F)cc3C2=O)C(=O)N1 (stereo partly drawn) [GT-03866, 3-(6-fluoro-5-((4-(6-(6-((R)-2-(3-fluorophenyl)pyrrolidin-1-yl)imidazo[1,2-b]pyridazin-3-yl)pyridin-2-yl)piperazin-1-yl)methyl)-1-oxoisoindolin-2-yl)piperidine-2,6-dione] | IC50 ([7]; Homo sapiens, Table 22, NTRK inhibitor based, CCRF-CEM, read-out: IC50 inhibiting proliferation of tumor cells, CCRF-CEM): < 50 nM; IC50 [9]: < 50 nM; IC50 ([8]; Table 22, NTRK inhibitor based): 50 to 100 nM |
| – | – | – | – | – | CNC(=O)c1ccccc1Nc1cc(Nc2cc(C)c(N3CCN(Cc4ccc5c(c4)CN(C4CCC(=O)NC4=O)C5=O)CC3)cc2OC(C)C)ncc1C(F)(F)F (stereo not shown) [GT-03940, 2-((2-((4-(4-((2-(2,6-dioxopiperidin-3-yl)-1-oxoisoindolin-5-yl)methyl)piperazin-1-yl)-2-isopropoxy-5-methylphenyl)amino)-5-(trifluoromethyl)pyridin-4-yl)amino)-N-methylbenzamide] | IC50 [6]: < 50 nM; IC50 [10]: 50 to 100 nM; IC50 ([8]; Table 18, FAK inhibitor based): 500 to 1000 nM |
| – | – | – | – | – | CNC(=O)c1ccccc1Nc1cc(Nc2cc(C)c(N3CCN(Cc4ccc5c(c4F)CN(C4CCC(=O)NC4=O)C5=O)CC3)cc2OC(C)C)ncc1C(F)(F)F (stereo not shown) [GT-03941, 2-((2-((4-(4-((2-(2,6-dioxopiperidin-3-yl)-4-fluoro-1-oxoisoindolin-5-yl)methyl)piperazin-1-yl)-2-isopropoxy-5-methylphenyl)amino)-5-(trifluoromethyl)pyridin-4-yl)amino)-N-methylbenzamide] | IC50 [6]: < 50 nM; IC50 [10]: < 50 nM; IC50 ([8]; Table 18, FAK inhibitor based): 100 to 500 nM |
| – | – | A+ | A+ | A+ | CCC(=C(c1ccc(O)cc1)c1ccc(N2CCN(Cc3ccc4c(c3F)CN(C3CCC(=O)NC3=O)C4=O)CC2)cc1)c1ccc(O)cc1 (stereo not shown) [GT-04144, 3-(5-((4-(4-(1,2-bis(4-hydroxyphenyl)but-1-en-1-yl)phenyl)piperazin-1-yl)methyl)-4-fluoro-1-oxoisoindolin-2-yl)piperidine-2,6-dione] | IC50 for inhibiting the proliferation of tumor cells, SW620 [10]: A+ |
| – | – | A+ | A+ | A+ | CCC(=C(c1ccc(O)cc1)c1ccc(N2CCN(Cc3cc4c(cc3F)C(=O)N(C3CCC(=O)NC3=O)C4)CC2)cc1)c1ccc(O)cc1 (stereo not shown) [GT-04145, 3-(5-((4-(4-(1,2-bis(4-hydroxyphenyl)but-1-en-1-yl)phenyl)piperazin-1-yl)methyl)-6-fluoro-1-oxoisoindolin-2-yl)piperidine-2,6-dione] | IC50 for inhibiting the proliferation of tumor cells, SW620 [10]: A+ |
| – | – | A+ | A+ | A+ | CCC(=C(c1ccc(O)cc1)c1ccc(N2CCN(Cc3cc(F)c4c(c3)CN(C3CCC(=O)NC3=O)C4=O)CC2)cc1)c1ccc(O)cc1 (stereo not shown) [GT-04146, 3-(5-((4-(4-(1,2-bis(4-hydroxyphenyl)but-1-en-1-yl)phenyl)piperazin-1-yl)methyl)-7-fluoro-1-oxoisoindolin-2-yl)piperidine-2,6-dione] | IC50 for inhibiting the proliferation of tumor cells, SW620 [10]: A+ |
| – | – | A+ | A+ | A+ | CCC(=C(c1ccc(O)cc1)c1ccc(N2CCN(Cc3cccc4c3CN(C3CCC(=O)NC3=O)C4=O)CC2)cc1)c1ccc(O)cc1 (stereo not shown) [GT-04147, 3-(4-((4-(4-(1,2-bis(4-hydroxyphenyl)but-1-en-1-yl)phenyl)piperazin-1-yl)methyl)-1-oxoisoindolin-2-yl)piperidine-2,6-dione] | – |
| – | – | A+ | A+ | A+ | CCC(=C(c1ccc(O)cc1)c1ccc(N2CCN(Cc3ccc4c(c3)C(=O)N(C3CCC(=O)NC3=O)C4=O)CC2)cc1)c1ccc(O)cc1 (stereo not shown) [GT-04148, 5-((4-(4-(1,2-bis(4-hydroxyphenyl)but-1-en-1-yl)phenyl)piperazin-1-yl)methyl)-2-(2,6-dioxopiperidin-3-yl)isoindoline-1,3-dione] | – |
